{"source": "patent US7910723B2", "about": "“IG20 splice variants therapeutics for cancer” (The Board of Trustees of the University of Illinois, priority 2006, dated 2011)", "key": {"[1]": {"tested_on": "HeLa cells", "assay": "Spontaneous apoptosis of HeLa cells (Hoechst nuclear condensation, TMRM mitochondrial depolarization)", "assay_type": "cell-based", "settings": "72 hours post-transduction", "method": "FIG. 1 illustrates effect of down-modulation of IG20-SVs in HeLa cells. (A) Summary of results showing percentage of cells with increased nuclear condensation as measured by Hoechst staining from three independent experiments. The P value was <0.005 for all test groups. Hoechst Staining-72 hours post-transduction was performed and HeLa cells were collected and stained with 1 μg/mL of Hoechst and subjected to FACS analysis. Percentages of highly positive cells (apoptotic cells) are indicated on the histograms. (B) Summary of results showing percentage of cells with increased mitochondrial depolarization from three independent experiments. The P value was <0.005 for all test groups. The data were collected from only GFP positive cells. […] Loss of staining as a marker of mitochondrial depolarization was detected by FACS.\nSpontaneous cell death was determined by nuclear condensation (Hoechst 33342) and loss of mitochondrial membrane potential (TMRM staining) (FIG. 1A-B). […] Whether the underlying cause of increased spontaneous apoptosis was similar to that noted after induction of apoptosis by the extrinsic (caspase-8 activation) or the intrinsic (caspase-9 activation) pathway was analyzed by determining the percentage of cells that harbored active caspases 8 and 9 using flow cytometry.\nHoechst Staining. […] Cells with condensed chromatin were analyzed using a BD-LSR (Becton Dickinson, N.J.). […]"}, "[2]": {"tested_on": "MADD", "assay": "Phosphorylation of exogenous wtMADD in HEK293 cells (anti-phospho antibodies)", "assay_type": "cell-based", "settings": "HEK293 transfected with wtMADD; LY 10 μM 1 h, IGF-1 150 ng/ml 20 minutes", "method": "(A) In vitro phosphorylation of rMADD by Akt. GST-wtMADD or -MADD mutants were expressed in bacteria, purified, and then incubated with rAkt and γ[^32P] ATP. After 1 h incubation at 30° C., the products were resolved on SDS-PAGE and ^32P-labeled proteins were visualized by autoradiography. (B) MADD is labeled by [^32P]orthophosphate in vivo. HEK293 cells were transfected with wtMADD or MADD mutant constructs. Twenty-four hours after transfection cells were incubated with 0.3 mCi/ml [32P]orthophosphate for 6 h. MADD was immunoprecipitated with an anti-YFP antibody. The precipitated MADD was separated by SDS-PAGE, transferred to a nitrocellulose membrane, and subjected to autoradiography. Loaded MADD was visualized by staining the same membrane with an anti-YFP antibody. (C) HEK293 cells were transfected with cDNAs for wtMADD or MADD mutants and. 36 h later the cells were harvested for immunoblotting using the anti-phospho-S-70, -T-173 or -T-1041 antibodies. An anti-YFP antibody was used to detect exogenous MADD. (D) HEK293 cells were transfected with wtMADD and 24 hours later cells were serum starved for 20 h. Subsequently, they were treated with LY (10 μM) for 1 h and/or IGF-1 (150 ng/ml) for 20 minutes. The cell lysates were immunoblotted and probed with anti phospho-specific antibodies or an anti-YFP antibody. […]"}}}
{"compound": "13L-shRNA: shRNA targeting exon 13L (IG20, MADD), 5′ CGGCGAATCTATGACAATC-3′ (SEQ ID NO: 4)", "values": [{"measurement": "Spontaneous apoptosis (nuclear condensation, mitochondrial depolarization)", "setting": "[1]", "result": "consistently higher in 13L-treated, relative to Mid-treated, cells"}]}
{"compound": "O=c1cc(N2CCOCC2)oc2c(-c3ccccc3)cccc12", "note": "[LY]", "values": [{"measurement": "S70, T173 and T1041 phosphorylation levels of MADD", "setting": "[2]", "result": "decreased"}]}
